# Test results from patent publication US5468760A, “Aralkyl-N-hydroxyureas as inhibitors of 5-lipoxygenase and oxidation of low density lipoprotein” (American Home Products Corporation, priority 1993, dated 1995).
# How the values were obtained:
# Lipoxygenase = assay: Ex-Vivo Measurement of Lipoxygenase Inhibition in Orally Dosed Rats (LTB4); design: species or system rat (male Sprague Dawley); conditions: p.o.
# Description: 2. Ex-Vivo Measurement of Lipoxygenase Inhibition in Orally Dosed Rats
# Male Sprague Dawley rats (Charles River) weighing between 180 g and 200 g were dosed orally with an invention compound (1-25 mg/kg, po) suspended in 0.5% Tween 80®. After an interval of 3 or 6 hours, the rats were anesthetized with metofane (n=4/group) and blood collected in heparinized tubes. White blood cell counts and differentials were made. One ml of blood from each animal was placed in a 5 ml plastic tube in a shaker bath at 37° C. A23187 at a final concentration of 10 μM was added to the blood and the blood vortexed and incubated for 15 min at […] with gentle shaking. Incubation was terminated by vortexing sample and centrifuging immediately at 1200 xG for 15 min at 4° C. The plasma was transferred to 15 ml plastic tubes each containing 8 ml of methanol to precipitate protein followed by vortexing. The samples were stored at -70 ° C. overnight and the next day the samples were centrifuged at 800 xG for 15 min to pellet the precipitate. The samples were dried in a Savant SpeedVac Concentrator Model SVC 200H and reconstituted to the original volume with cold RIA or ELISA buffer. The reconstituted samples were stored at -70° C. until assayed. The assay for LTB4 was performed according to the directions of the [^3 H]RIA kit or ELISA kit (Seragen). The total metabolite level in 1 ml of blood is calculated and reported as ng/10^6 neutrophils. Significance is determined by a one-way analysis of variance with LSD comparisons to control (p≤0.05).
# LTB4 Synthesis = assay: Reverse Passive Arthus Reaction (pleurisy), LTB4 in pleural exudate; type: in vivo, rat (male Lewis); conditions: p.o.
# Description: 3. Reverse Passive Arthus Reaction
# A reverse passive Arthus reaction is induced in the pleural cavity of male Lewis rats (150-200 g; fasted overnight prior to use) by the intravenous administration of bovine serum albumin (BSA; 4 mg/0.2 ml) followed 30 minutes later by the injection of rabbit anti-BSA (1 mg/0.2 ml; lyophilized IgG fraction; Organon Teknika, West Chester, Pa.) into the right pleural space under halothane anesthesia. Drugs or vehicle (0.5% Tween-80) control are administered orally in a volume of 1 ml/100 g body weight at 1 hour prior to the anti-BSA. Animals are sacrificed at either the time of peak eicosanoid production (i.e. 5 minutes after anti-BSA for immunoreactive TxB2, 10 minutes for immunoreactive LTB4, 20 minutes for immunoreactive LTC4) or at the time of peak neutrophil infiltration (4 hours after anti-BSA) by CO2 inhalation. The pleural cavity is then exposed., the fluid exudate removed by gentle vacuum aspiration and the volume of exudate is recorded. For the determination of cellular infiltration, the pleural cavity is rinsed with 3 ml of 0.1% EDTA in sterile saline, and the recovered wash is pooled with the exudate. Cell number is determined on a model ZBI Coulter counter. For determination of eicosanoid production, undiluted pleural exudate is microfuged and the supernatant is extracted with ethanol (8-10 times volume). Extracts are either stored at -20° C., or are evaporated to dryness under a stream of N2 and reconstituted in radioimmunoassay (RIA) buffer.
# Eicosanoids are quantitated by RIA according to the procedure specified by the RIA kit manufacturer (Advanced Magnetics, Cambridge, Mass.). Briefly, 100 μl of ^3 H-labeled eicosanoid and 100 μl of specific antibody are sequentially added to 100 μl of extracted pleural exudate in BGG-phosphate buffer which contains 0.01M phosphate, 0.1% bovine gamma globulin and 0.1% sodium azide at pH 7.0. Antibody-bound eicosanoid is separated from unbound eicosanoid by the addition of 750 μl of dextran (0.4%)-coated charcoal (Norit A) containing 0.1% sodium azide. The mixture is centrifuged at 2000 RPM at 5° C. for 15 minutes to pellet the charcoal and adsorbed unbound eicosanoid. Antibody-bound labeled eicosanoid is quantitated by counting in a liquid scintillation counter, and is correlated to concentration by a standard curve.
# [1] = 10 mg/kg, pretreatment period 6 hr
SMILES,"% Inhibition of LTB4 (Lipoxygenase; 25 mg/kg, pretreatment period 3 hr) [%]",% Inhibition LTB4 Synthesis (LTB4 Synthesis; 25 mg/kg) [%],% Inhibition of LTB4 (Lipoxygenase; [1]) [%],% Inhibition LTB4 Synthesis (LTB4 Synthesis; 10 mg/kg) [%],"% Inhibition of LTB4 (Lipoxygenase; 5 mg/kg, pretreatment period 6 hr) [%]"
"Cc1oc(-c2ccccc2)nc1COc1cccc(CN(O)C(N)=O)c1 [Example 1, 1-Hydroxy-1-[3-(5-methyl-2-phenyl-oxazol-4-ylmethoxy)-benzyl]-urea]",86,79,,,
"Cc1oc(-c2ccc(F)cc2)nc1COc1cccc(CN(O)C(N)=O)c1 [Example 9, 1-[3-[2-(4-fluorophenyl)-5-methyl-oxazol-4-ylmethoxy]-benzyl]-1-hydroxy-urea]",,,50,27,
"NC(=O)N(O)Cc1cccc(OCc2csc(-c3ccc(Cl)cc3)n2)c1 [Example 6, 1-Hydroxy-1-[3-[2-(4-chloro-phenyl)-thiazol-4-ylmethoxy]-benzyl]-urea]",,,67,,
"NC(=O)N(O)Cc1cccc(OCc2csc(-c3ccccc3)n2)c1 [Example 5, 1-Hydroxy-1-[3-(2-phenyl-thiazol-4-ylmethoxy)-benzyl]-urea]",,,80,43,
"Cc1oc(-c2ccccc2)nc1COc1cc(F)cc(CN(O)C(N)=O)c1 [Example 13, 1-[3-Fluoro-5-(5-methyl-2-phenyl-oxazol-4-ylmethoxy)-benzyl]-1-hydroxy-urea]",,,,17,52
